From patent US20240336604A1 (THE UNITED STATES OF AMERICA, AS REPRESENTED BY THE …, priority 2021, published 2024)
“Also recorded” adds a separate entry of the source.

Key:
D2 DAR [1] = biological target: T1, D2 DAR (Homo sapiens, UniProt P14416); experiment: Go BRET activation assay, D2 DAR; type: cell-based; settings: FIG. 3B right
Experimental: (§1) Briefly, HEK293T cells transiently expressing either the D2 DAR or D3 DAR and GαoA-Rluc8, untagged-β1, and mVenus-γ2 were harvested with EBSS, plated in 96-well white plates at 20,000 cells/well in DPBS and incubated at RT for 45 min. […] BRET signal was determined by quantifying and calculating the ratio of the light emitted by mVenus (525 nm) over that emitted by RLuc8 (485 nm) using a PHERAstar FSX Microplate Reader (BMG Labtech).

D2 DAR [2] = biological target: T1, D2 DAR; experiment: BRET β-arrestin recruitment assay, D2 DAR; type: cell-based; settings: FIG. 3A right
Experimental: BRET β-arrestin recruitment assay: As an orthogonal test using an unrelated assay of D2- or D3 DAR-mediated β-arrestin recruitment, an arrestin BRET assay was conducted. HEK293T cells transiently expressing D2-Rluc8, Arrestin3-mvenus and GRK2, or D3-Rluc8, Arrestin3-mvenus, and GRK3 were harvested with EBSS, plated in 96-well plates in Dulbecco's phosphate-buffered saline (DPBS) and incubated at rt for 45 min. […] BRET signal was determined by quantifying and calculating the ratio of the light emitted by mVenus (525 nm) over that emitted by RLuc8 (485 nm) using a PHERAstar FSX Microplate Reader (BMG Labtech).

D2 DAR [3] = biological target: T1, D2 DAR; experiment: cAMP CAMYEL biosensor assay, D2 DAR; type: cell-based; settings: FIG. 3C right
Experimental: as §1, with “cAMP CAMYEL biosensor assay: HEK293” for “Briefly, HEK293T”, “expressing” for “expressing either”, “the CAMYEL cAMP biosensor (yellow fluorescence protein-Epac-Rluc)” for “GαoA-Rluc8, untagged-β1, and mVenus-γ2”, “room temperature” for “RT”

5-HT6 receptor = 5-HT6 receptor (Homo sapiens, UniProt P50406); experiment: 5-HT6 cAMP recruitment assay; type: cell-based; settings: read-out: IC50, antagonism of the 5-HT6 receptor
5-HT6 receptor, sequence (P50406 whole entry): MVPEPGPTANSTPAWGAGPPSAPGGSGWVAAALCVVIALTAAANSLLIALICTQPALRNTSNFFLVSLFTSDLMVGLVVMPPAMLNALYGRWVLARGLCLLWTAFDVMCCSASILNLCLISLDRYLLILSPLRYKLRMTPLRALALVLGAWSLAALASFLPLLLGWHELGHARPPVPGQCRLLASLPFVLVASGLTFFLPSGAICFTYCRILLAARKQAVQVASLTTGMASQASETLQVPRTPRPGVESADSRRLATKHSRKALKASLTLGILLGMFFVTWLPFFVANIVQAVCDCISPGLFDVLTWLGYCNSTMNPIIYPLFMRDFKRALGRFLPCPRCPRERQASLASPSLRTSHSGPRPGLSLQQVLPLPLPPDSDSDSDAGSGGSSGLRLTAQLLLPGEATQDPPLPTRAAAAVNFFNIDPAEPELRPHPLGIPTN

D3 DAR [4] = biological target: T2, D3 DAR (Homo sapiens, UniProt P35462); experiment: Functional curve-shift assays using the DiscoverX β-arrestin recruitment assay; type: cell-based; design: host or cells: CHO
T2 sequence (P35462 whole entry): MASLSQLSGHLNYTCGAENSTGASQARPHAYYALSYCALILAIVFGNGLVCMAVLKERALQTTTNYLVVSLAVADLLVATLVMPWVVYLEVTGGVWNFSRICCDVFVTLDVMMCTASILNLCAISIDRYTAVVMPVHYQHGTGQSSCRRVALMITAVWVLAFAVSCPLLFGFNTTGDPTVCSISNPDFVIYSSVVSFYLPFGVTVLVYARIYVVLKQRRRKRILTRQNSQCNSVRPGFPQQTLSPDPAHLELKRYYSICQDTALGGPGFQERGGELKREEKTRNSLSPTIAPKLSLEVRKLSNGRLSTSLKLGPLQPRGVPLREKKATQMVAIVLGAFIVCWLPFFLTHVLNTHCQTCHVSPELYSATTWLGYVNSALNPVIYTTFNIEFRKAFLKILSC
From the text: To further assess the mechanism of action of Cmp. […] 1 (FIGS. 4B and 4D). […] Average curves are shown (mean±SEM from at least 3 experiments each performed in triplicate). […] In contrast, increasing concentrations of Cmp.
1. FIG. 6A-C panels show concentration-response curves of dopamine in the absence or presence of increasing concentrations of compound. Cmp. […] 18 (FIG. 6A), Cmp. 5 (FIG. 6B), and Cmp. 17 (FIG. 6C), respectively. Average curves are shown (mean±SEM from at least 3 experiments, each performed in triplicate).
A D3 DAR β-arrestin cell line from DiscoverX (Fremont, CA) was used as described in the protocol below (Table 2). A CHO cell line engineered to overexpress the D3 DAR fused with a small 42-amino acid fragment of β-galactosidase called ProLink™ and a fusion protein consisting of β-arrestin and a larger N-terminal deletion mutant of β-galactosidase was used (DiscoverX catalogue number 93-0579C2). When the D3 DAR is activated by dopamine, it stimulates binding of β-arrestin to ProLink-tagged D3 DARs, and the two complementary parts of β-galactosidase form a functional enzyme. When substrate (PathHunter® Detection reagent, DiscoverX 93-0001) is added, β-galactosidase hydrolyzes it and generates a chemiluminescent signal.

D2 DAR [5] = biological target: T1, D2 DAR; experiment: DiscoverX D2 DAR β-arrestin recruitment assay; type: cell-based; design: host or cells: CHO; settings: EC80 concentration of DA (1 μM)
How it was run: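 CHO cells co-expressing ProLink-tagged D2 DAR and enzyme-acceptor-fused β-arrestin (PathHunter enzyme-fragment complementation). Receptor activation recruits β-arrestin, reconstituting β-galactosidase; detection reagent hydrolysis gives chemiluminescent read-out. Same PathHunter format used for other dopamine receptor subtypes.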

[6] = tested on: 45 GPCRs, ion channels, and neurotransmitter transporters; experiment: PDSP radioligand binding panel; settings: 10 μM
Experimental: Cmp. 1 was tested as both an agonist (FIG. 5A) or an antagonist (FIG. 5B) at a single high concentration (30 μM) on 168 different GPCRs in the DiscoverX gpcrMAX™ β-arrestin recruitment assay panel (FIGS. 5A and 5B). Assay results are presented as the mean percent activation of indicated GPCRs (for n=2 replicates). For a full description of the DiscoverX gpcrMAX™-GPCR assay panel and methods (see: http://www.DiscoverX.com). […] Data were provided by the National Institute of Mental Health (NIMH) Psychoactive Drug Screening Program (PDSP) (University of North Carolina, Chapel Hill, NC). For experimental details including radioligands used and associated Kd values for each individual target, refer to the PDSP website: http://pdsp.med.unc.edu/. While Cmp. […] The 5-HT6 receptor was not present in the functional panels, however, subsequent testing found Cmp.

D3 DAR [7] = biological target: T2, D3 DAR; experiment: Go BRET activation assay, D3 DAR; type: cell-based; settings: EC80 DA (30 nM)
Experimental: as §1

D2 DAR [8] = biological target: T1, D2 DAR; experiment: ERK1/2 phosphorylation assay, D2 DAR; type: cell-based; design: host or cells: CHO; settings: FIG. 3D right
Experimental: ERK1/2 Phosphorylation assay: ERK1/2 phosphorylation was measured using the Alphascreen SureFire Ultra ERK kit (PerkinElmer, Waltham, USA). CHO-K1 cells stably expressing either the D2 DAR or D3 DAR were seeded into 384-well small volume white plates at a density of 40,000 cells/well in serum-free Ham's F12 media overnight. […] The plate was shaken for 10 min at RT, followed by the addition of Surefire activation buffer, Surefire reaction buffer, Alphascreen acceptor beads, and Alphascreen donor beads in ratios specified by the manufacturer. The plate was incubated in the dark for 2 h, then read using a PHERAstar FSX Microplate Reader (BMG Labtech).

T1 sequence (P14416 whole entry): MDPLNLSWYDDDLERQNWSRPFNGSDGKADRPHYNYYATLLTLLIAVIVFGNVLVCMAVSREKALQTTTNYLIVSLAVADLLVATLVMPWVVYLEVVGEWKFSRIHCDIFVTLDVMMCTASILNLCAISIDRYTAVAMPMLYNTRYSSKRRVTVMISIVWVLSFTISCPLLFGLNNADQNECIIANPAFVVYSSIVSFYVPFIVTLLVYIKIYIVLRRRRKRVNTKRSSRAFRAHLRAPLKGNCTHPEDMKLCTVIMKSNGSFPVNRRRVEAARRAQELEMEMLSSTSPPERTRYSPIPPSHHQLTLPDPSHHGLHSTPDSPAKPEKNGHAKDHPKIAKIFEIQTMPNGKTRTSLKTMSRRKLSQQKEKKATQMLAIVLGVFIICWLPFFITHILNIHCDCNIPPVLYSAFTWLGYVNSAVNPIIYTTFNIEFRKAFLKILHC

antagonist activity at the D2 DAR, Go activation (D2 DAR [1]): lacked antagonist activity | antagonist activity at the D2 DAR, BRET β-arrestin (D2 DAR [2]): lacked antagonist activity | antagonist activity at the D2 DAR, cAMP CAMYEL (D2 DAR [3]): lacked antagonist activity | IC50 (5-HT6 receptor): > 50 µM | IC50 (D3 DAR [4]; agonist dopamine, read-out: Functional IC50 for decreasing the Emax of dopamine): 17 µM | IC50 (D3 DAR [4]; agonist pramipexole, read-out: Functional IC50 for decreasing the Emax of pramipexole): 14 µM | mode of antagonism in curve-shift assays (D3 DAR [4]; versus agonist (dopamine, pramipexole)): behaves in a non-competitive manner | D2 DAR Imax (D2 DAR [5]): NA (“NA” indicates not active) | Emax (D3 DAR [7]; 5 min, read-out: D3 Go BRET Imax): > 100% | IC50 (D3 DAR [7]): 10 to 50 µM | antagonist activity at the D2 DAR, pERK (D2 DAR [8]): lacked antagonist activity
SMILES: Cc1ccc(NS(=O)(=O)c2c(C)[nH]c(C)c2C(=O)N2CCCC2)cc1Cl [Cmp. 1]
off-target affinity / displacement in radioligand binding panel [6]: limited off-target affinity; also recorded: minimal displacement at only the H1 histamine and 5-HT6 serotonin receptors
